Measurements as given in patent EP0537742B1, “Styrene derivatives” (Mitsubishi Chemical Corporation, priority 1991, dated 1993).
Read-outs that look alike come from different tables or passages of the source.

Key:
[1] = target: T1, human EGF (epidermal cell growth factor) receptor tyrosine kinase (Homo sapiens, UniProt P00533); assay: Tyrosine kinase activity inhibition (partially purified EGF receptor from A431 cell membrane fraction, RR-SRC peptide, 32P-ATP); assay type: biochemical; settings: for inhibition at 10 µM: read-out: Inhibitory Rate (%) in the presence of 10 µM; for inhibition at 1 µM: read-out: Inhibitory Rate (%) in the presence of 1 µM
T1 construct: A431 cell membrane fraction, which was provided for the assay as the partially purified EGF receptor, enzyme source; endogenous in cells; host or cells: A431 (human squamous cell carcinoma), crude membrane fraction (27500 x g pellet)
Description: Detailed explanation of the assaying method will be given below.
A431 cells were cultivated in Dulbecco's modified Eagle's medium (DMEM) containing 10% fetal calf serum (FCS) at 37°C in a stream of 5% carbon dioxide, and the resultant cells were homogenized in a solution containing 10 mM N-2-hydroxyethylpiperazino-N'-2-ethanesulfonic acid (Hepes) buffer (pH 7.4), 0.25M sucrose and 0.1 mM EDTA and centrifuged at 1000 g for 5 minutes.
At that time the volume was 60 µl. The reaction was allowed to perform in ice for 30 minutes and stopped by adding 10 mg/ml bovine serum albumin (6 µl) and 20% trichloroacetic acid (25 µl). The mixture was allowed to stand in ice for 30 minutes.
Then the mixture was centrifuged at 5000 x g for 2 minutes, and the supernatant (40 µl) was sampled and adsorbed on P81 phosphocellulose paper. […] The count obtained was defined as "A". At the same time, counts of the reaction not containing the test material and the reaction not containing both the test material and EGF were assayed, and the resulted counts were defined as "B" and "C" respectively.

SKOV3 cell line = assay: Test on cancer cells in tissue culture (proliferation inhibition, MTT); assay type: cell-based; settings: Homo sapiens, SK-OV-3, 72 h
Description: Effect of the test material against the proliferation of cultivated cancer cells was examined with this SKOV3 cell line as follows:
SKOV3 cell was inoculated at a rate of 1 x 10^3 cell/well on a 96 well dish, and cultivated on a DMEM: F12 (1 : 1) medium containing 10% FCS and 0.1 mg/ml kanamycin at 37°C in a stream of 5% carbon dioxide for one day. Test material dissolved in DMSO was added to the medium (final concentration of DMSO was below 0.1%), which was cultivated for 3 days under the conditions mentioned above. Test material was replaced every 24 hours together with the medium.
Counting the number of living cells was effected by making colorimetric analysis at two wave length, 550 nm and 610 nm, in reference to the assaying method as described in Michael C. Alley et al., Cancer Research, 48, 589 (1988) using MTT reagent, and the number obtained was defined as "a".
At the same time, the count of the number of living cells obtained without adding the test material was assayed, and the number obtained was defined as "b".
Cell proliferation inhibitory rate was determined according to the following equation: Inhibitory Rate (%) = (b-a)/b x 100 [formula]

[2] = Toxicity test, intraperitoneal administration; assay type: in vivo, Mouse ddy (male)
Description: Toxicity test for the compounds of the present invention was examined in the manner as shown below. Test compound Compound No. 4 Test animal Mouse ddy (male) 16 - 20 g
Test compound was suspended in a mixture of 0.25% carboxymethyl cellulose, physiological saline, and a small amount of Tween 80 to give a test solution. This solution was administered intraperitoneally at dose of 0 mg/kg (control), 500 mg/kg and 1000 mg/kg to the test animal. Change of the body weight was measured 3 days later.

[3] = Table 5: Proliferation Inhibitory Effect Against Cultivated Cells, 3 days, read-out: IC50
[4] = Tyrosine Kinase Activity Inhibitory Effect, test material 10 µM

T1 sequence (P00533 25-1210): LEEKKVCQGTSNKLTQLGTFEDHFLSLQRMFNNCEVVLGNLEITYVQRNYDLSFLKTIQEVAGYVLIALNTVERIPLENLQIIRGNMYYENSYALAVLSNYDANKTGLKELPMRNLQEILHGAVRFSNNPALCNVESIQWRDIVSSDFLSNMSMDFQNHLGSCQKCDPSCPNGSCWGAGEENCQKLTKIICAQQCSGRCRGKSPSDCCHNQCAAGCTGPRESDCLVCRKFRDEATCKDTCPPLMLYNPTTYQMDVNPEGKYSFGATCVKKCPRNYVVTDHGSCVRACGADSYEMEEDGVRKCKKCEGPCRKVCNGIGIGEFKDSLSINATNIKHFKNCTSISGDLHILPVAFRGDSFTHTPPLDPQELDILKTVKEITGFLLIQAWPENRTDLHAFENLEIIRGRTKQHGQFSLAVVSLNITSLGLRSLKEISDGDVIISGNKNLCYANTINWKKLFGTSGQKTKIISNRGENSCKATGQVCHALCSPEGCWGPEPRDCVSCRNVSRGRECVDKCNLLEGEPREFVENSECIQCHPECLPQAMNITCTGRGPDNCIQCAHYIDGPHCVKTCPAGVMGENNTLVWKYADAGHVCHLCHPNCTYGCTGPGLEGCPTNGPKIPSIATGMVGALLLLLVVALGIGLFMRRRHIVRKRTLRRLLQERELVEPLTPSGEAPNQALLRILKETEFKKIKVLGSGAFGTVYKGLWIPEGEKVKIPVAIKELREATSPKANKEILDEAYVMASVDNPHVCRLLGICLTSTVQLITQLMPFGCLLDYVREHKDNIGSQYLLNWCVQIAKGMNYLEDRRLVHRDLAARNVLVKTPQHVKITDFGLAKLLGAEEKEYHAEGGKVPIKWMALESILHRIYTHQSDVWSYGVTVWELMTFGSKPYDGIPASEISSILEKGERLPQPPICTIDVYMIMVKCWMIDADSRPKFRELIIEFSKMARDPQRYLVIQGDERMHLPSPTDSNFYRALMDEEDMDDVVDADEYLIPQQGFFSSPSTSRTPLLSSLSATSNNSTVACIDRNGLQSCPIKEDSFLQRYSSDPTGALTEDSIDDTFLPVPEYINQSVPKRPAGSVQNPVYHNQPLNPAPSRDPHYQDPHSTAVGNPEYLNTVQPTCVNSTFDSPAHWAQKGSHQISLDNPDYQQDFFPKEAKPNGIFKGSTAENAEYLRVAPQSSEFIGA
T1 sequence (P01133 971-1023 partner limits assumed): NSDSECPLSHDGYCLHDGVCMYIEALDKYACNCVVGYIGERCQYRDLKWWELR

Row | Structure (SMILES) | IC50 (SKOV3 cell line; [3]) [µM] | further results
1 | COc1cc(C=C(C#N)C(=O)Nc2ccccc2)cc(Cl)c1O [Compound No. 1, 2-cyano-3-(3-chloro-4-hydroxy-5-methoxyphenyl) propeneanilide] | 17.3 | inhibition at 10 µM [1]: 63%
2 | N#CC(=Cc1cc(O)c(O)c(Cl)c1)C(=O)Nc1ccccc1 [Compound No. 2, 2-cyano-3-(3-chloro-4,5-dihydroxyphenyl)propenanilide] | 20.4 | inhibition at 10 µM [1]: 74%
3 | N#CC(=Cc1cc(O)c(O)c(Cl)c1)C(=O)Nc1cccc(Cl)c1 [Compound No. 4, N-(3-chlorophenyl)-2-cyano-3-(3-chloro-4,5-dihydroxyphenyl) propenamide] | 21.6 | dead case ([2]; 500 mg/kg intraperitoneally): No dead case was observed; dead case ([2]; 1000 mg/kg intraperitoneally): No dead case was observed
4 | N#CC(=Cc1cc(O)c(O)c(Br)c1)C(=O)Nc1cccc(Cl)c1 [Compound No. 6, N-(3-chlorophenyl)-2-cyano-3-(3-bromo-4,5-dihydroxyphenyl) propenamide] | 21 | 
5 | COc1cc(C=C(C#N)C(=O)Nc2cccc(Cl)c2)cc(F)c1O [Compound No. 7, N-(3-chlorophenyl)-2-cyano-3-(3-fluoro-4-hydroxy-5-methoxyphenyl) propenamide] |  | inhibition at 1 µM [1]: 41%
6 | N#CC(=Cc1cc(O)c(O)c(F)c1)C(=O)Nc1cccc(Cl)c1 [Compound No. 8, N-(3-chlorophenyl)-2-cyano-3-(3-fluoro-4,5-dihydroxyphenyl) propenamide] | 23.4 | inhibition at 1 µM [1]: 78%
7 | N#CC(=Cc1cc(O)c(O)c(Br)c1Br)C(=O)Nc1cccc(Cl)c1 [Compound No. 9, N-(3-chlorophenyl)-2-cyano-3-(2,3-dibromo-4,5-dihydroxyphenyl) propenamide] | 17 | 
8 | N#CC(=Cc1ccc(O)c(O)c1)C(=O)Nc1ccc(Br)cc1 [Compound No. 10, N-(4-bromophenyl)-2-cyano-3-(3,4-dihydroxyphenyl) propenamide] |  | inhibition at 10 µM [1, 4]: 47%
9 | N#CC(=Cc1ccc(O)c(O)c1)C(=O)Nc1cccc(Br)c1 [Compound No. 11, N-(3-bromophenyl)-2-cyano-3-(3,4-dihydroxyphenyl) propenamide] |  | inhibition at 10 µM [1, 4]: 77%
10 | N#CC(=Cc1ccc(O)c(O)c1)C(=O)Nc1ccc(Cl)cc1 [Compound No. 12, N-(4-chlorophenyl)-2-cyano-3-(3,4-dihydroxyphenyl) propenamide] |  | inhibition at 10 µM [1, 4]: 52%
11 | N#CC(=Cc1ccc(O)c(O)c1)C(=O)Nc1cccc(Cl)c1 [Compound No. 13, N-(3-chlorophenyl)-2-cyano-3-(3,4-dihydroxyphenyl) propenamide] | 30 | inhibition at 1 µM [1]: 46%; inhibition at 10 µM [1]: 100%
12 | Cc1cccc(NC(=O)C(C#N)=Cc2ccc(O)c(O)c2)c1 [Compound No. 14, N-(3-methylphenyl)-2-cyano-3-(3,4-dihydroxyphenyl) propenamide] |  | inhibition at 10 µM [1]: 77%
13 | N#CC(=Cc1cc(O)c(O)c(C#N)c1)C(=O)Nc1cccc(Cl)c1 [Compound No. 15, N-(3-chlorophenyl)-2-cyano-3-(3-cyano-4,5-dihydroxyphenyl) propenamide] | 34 | 
14 | N#CC(=Cc1cc(O)c(O)cc1[N+](=O)[O-])C(=O)Nc1cccc(Cl)c1 [Compound No. 16, N-(3-chlorophenyl)-2-cyano-3-(4,5-dihydroxy-2-nitrophenyl) propenamide] | 24 | 
15 | N#CC(=Cc1cc(O)c(O)c(C(F)(F)F)c1)C(=O)Nc1cccc(Cl)c1 [Compound No. 98, N-(3-chlorophenyl)-2-cyano-3-[3,4-dihydroxy-5-(trifluoromethyl)phenyl] propenamide] | 16 | 
16 | N#CC(C(=O)Nc1ccccc1)=C(O)c1ccc(O)c(O)c1 [Compound No. 119, 2-cyano-3-hydroxy-3-(3,4-dihydroxyphenyl) propenanilide] | 24 | 
17 | N#CC(=Cc1ccc(O)c(O)c1)C(=O)Nc1ccccc1 [Reference 1), reference compound] |  | IC50 (SKOV3 cell line): 35 µM
18 | CCOc1cc(C=C(C#N)C(N)=O)cc(CSc2ccccc2)c1O [Reference 2), reference compound] | 78 | 
19 | O=CNC=Cc1ccc(O)c(O)c1 [Reference 3), reference compound] |  | IC50 ([1]; Table 3, tyrosine kinase inhibition): 12 µM
20 | N#CC(=Cc1cc(Br)c(O)c(Br)c1)C(=O)Nc1cccc(Cl)c1 [compound 100] | 19 | 
21 | COc1cc(C=C(C#N)C(=O)Nc2ccccc2)cc(Br)c1O [compound 105] | 13 | 
22 | Cc1cc(C=C(C#N)C(=O)Nc2cccc(Cl)c2)cc(O)c1O [compound 110] | 14 | 
